Data set [1] in a line: Selectivity index, ratio of IC50 for african green monkey Vero cells to IC50 for chloroquine-sensitive Plasmodium falciparum 3D7. Format: toxicity, cell-based. The following applies: read-out: Ratio IC50.
A further data set has as its system Sporothrix schenckii. The data set can be described thus: Antifungal activity against Sporothrix schenckii clinical isolate after 72 to 96 hrs by standard broth microdilution method. It counts as functional. (In general: In broth dilution the organism is exposed to a series of concentrations in liquid medium.)
Data set [2] has as its system Plasmodium falciparum. The data set can be described thus: Antiplasmodial activity against chloroquine-sensitive Plasmodium falciparum 3D7 infected after 72 hrs by Malaria SYBR Green I-staining based fluorescence assay. It counts as functional, organism-based. Particulars: 3D7, 72 h.
The subject of the next data set is Escherichia coli. The data set can be described thus: Antimicrobial activity against Escherichia coli ATCC 9637 after 24 hrs by standard broth microdilution method. The following applies: ATCC 9637, 24 h. It counts as functional.
In the next data set the test system is Staphylococcus aureus. The data set can be described thus: Antimicrobial activity against Staphylococcus aureus ATCC 25923 after 24 hrs by standard broth microdilution method. Format: functional. Particulars: ATCC 25923, 24 h.
For data set [3], the system named is Trichophyton mentagrophytes. The data set can be described thus: Antifungal activity against Trichophyton mentagrophytes clinical isolate after 72 to 96 hrs by standard broth microdilution method. It counts as functional.
In a further data set the test system is Aspergillus fumigatus. The data set can be described thus: Antifungal activity against Aspergillus fumigatus clinical isolate after 72 to 96 hrs by standard broth microdilution method. It counts as functional.
A further data set concerns Klebsiella pneumoniae. The data set can be described thus: Antimicrobial activity against Klebsiella pneumoniae ATCC 27736 after 24 hrs by standard broth microdilution method. Particulars: ATCC 27736, 24 h. It counts as functional.
Data set [4] deals with Plasmodium falciparum. The data set can be described thus: Antiplasmodial activity against chloroquine-resistant Plasmodium falciparum K1 infected after 72 hrs by Malaria SYBR Green I-staining based fluorescence assay. Format: functional, organism-based. The following applies: K1, 72 h.
A further data set concerns Candida albicans. The data set can be described thus: Antifungal activity against Candida albicans clinical isolate after 24 to 48 hrs by standard broth microdilution method. Format: functional.
For the next data set, the system named is Pseudomonas aeruginosa. The data set can be described thus: Antimicrobial activity against Pseudomonas aeruginosa ATCC BAA-427 after 24 hrs by standard broth microdilution method. It counts as functional. The following applies: ATCC BAA-427, 24 h.
The next data set deals with Cryptococcus neoformans. The data set can be described thus: Antifungal activity against Cryptococcus neoformans clinical isolate after 24 to 48 hrs by standard broth microdilution method. Format: functional.
The test system of a further data set is Candida parapsilosis. The data set can be described thus: Antifungal activity against Candida parapsilosis ATCC […] after 72 to 96 hrs by standard broth microdilution method. Format: functional. The following applies: Lodderomyces parapsilosis.

Structures are written as SMILES. In brackets after ≈: the same amount, converted by molar mass.

By MIC is commonly meant the lowest concentration that inhibits growth of the organism. As usually defined, the IC50 is the midpoint of a concentration-inhibition curve.

As for `COc1ccc(Oc2ccc(N/C(=N/c3ccc(Cl)cc3)NCCCCNc3ccnc4cc(Cl)ccc34)cc2)cc1`, in [1], the selectivity ratio was found to be 88.7. In addition, the MIC in the data set with Sporothrix schenckii was 12.5 µg/mL (≈ 20.8 µM); in the data set with Escherichia coli, 6.25 µg/mL (≈ 10.4 µM); in the data set with Staphylococcus aureus it was 6.25 µg/mL (≈ 10.4 µM); in data set [3], 12.5 µg/mL (≈ 20.8 µM); against Aspergillus fumigatus, 25 µg/mL (≈ 41.6 µM); in the data set on Klebsiella pneumoniae it was 25 µg/mL (≈ 41.6 µM). The MIC in the data set with Candida albicans was 25 µg/mL (≈ 41.6 µM); against Pseudomonas aeruginosa, above 50 µg/mL; against Cryptococcus neoformans, 25 µg/mL (≈ 41.6 µM); against Candida parapsilosis, 6.25 µg/mL (≈ 10.4 µM). Further, the IC50 in the data set with Plasmodium falciparum [2] was found to be 33.7 nM; with Plasmodium falciparum [4], 138 nM.

Regarding `COC(=O)/C(C)=C/c1ccc(Oc2ccccc2N/C(=N/c2ccc(Cl)cc2)NCCCCNc2ccnc3cc(Cl)ccc23)cc1`, in data set [1], the selectivity ratio came to 102. The MIC against Sporothrix schenckii was 6.25 µg/mL (≈ 9.35 µM); in the data set on Escherichia coli, 12.5 µg/mL (≈ 18.7 µM); against Staphylococcus aureus, 1.56 µg/mL (≈ 2.33 µM); in data set [3], 6.25 µg/mL (≈ 9.35 µM); against Aspergillus fumigatus, above 50 µg/mL; in the data set with Klebsiella pneumoniae it was above 50 µg/mL. Further, the MIC with Candida albicans was 50 µg/mL (≈ 74.8 µM); against Pseudomonas aeruginosa, above 50 µg/mL; in the data set with Cryptococcus neoformans it was 50 µg/mL (≈ 74.8 µM); in the data set on Candida parapsilosis it was above 50 µg/mL. Also, the IC50 was 96.8 nM in the data set on Plasmodium falciparum [2] and 41.2 nM with Plasmodium falciparum [4].

Consider `COC(=O)/C(C)=C/c1ccc(Oc2ccc(N/C(=N/c3cccc(Cl)c3)NCCCNc3ccnc4cc(Cl)ccc34)cc2)cc1`, for which the selectivity ratio in data set [1] was found to be 21.9. Further, the minimum inhibitory concentration (MIC) is 50 µg/mL (≈ 76.4 µM) in the data set with Sporothrix schenckii; 6.25 µg/mL (≈ 9.55 µM) with Escherichia coli; 6.25 µg/mL (≈ 9.55 µM) against Staphylococcus aureus; 50 µg/mL (≈ 76.4 µM) in data set [3]; above 50 µg/mL in the data set on Aspergillus fumigatus; 50 µg/mL (≈ 76.4 µM) with Klebsiella pneumoniae. Besides, the MIC against Candida albicans was above 50 µg/mL; with Pseudomonas aeruginosa, above 50 µg/mL; in the data set on Cryptococcus neoformans, above 50 µg/mL; against Candida parapsilosis, 50 µg/mL (≈ 76.4 µM). The half-maximal inhibitory concentration (IC50) was determined as 78.2 nM in the data set on Plasmodium falciparum [2] and 71.4 nM in the data set with Plasmodium falciparum [4].

With `Clc1ccc(/N=C(\NCCNc2ccnc3cc(Cl)ccc23)Nc2ccccc2Oc2cc(Cl)ccc2Cl)cc1`, the selectivity ratio in data set [1] is 16.5. In addition, the MIC against Sporothrix schenckii was 25 µg/mL (≈ 40.9 µM); with Escherichia coli, 12.5 µg/mL (≈ 20.4 µM); in the data set on Staphylococcus aureus, 6.25 µg/mL (≈ 10.2 µM); in data set [3], 50 µg/mL (≈ 81.8 µM); against Aspergillus fumigatus, above 50 µg/mL; against Klebsiella pneumoniae, above 50 µg/mL. In addition, the MIC was 25 µg/mL (≈ 40.9 µM) against Candida albicans, above 50 µg/mL in the data set on Pseudomonas aeruginosa, above 50 µg/mL in the data set on Cryptococcus neoformans and above 50 µg/mL against Candida parapsilosis. Further, the IC50 was 58.1 nM in the data set with Plasmodium falciparum [2] and above 800 nM in the data set on Plasmodium falciparum [4].

For the compound `COC(=O)/C(C)=C/c1ccc(Oc2ccc(N/C(=N/c3ccccc3)NCCCNc3ccnc4cc(Cl)ccc34)cc2)cc1`, in [1], the selectivity ratio worked out at 84.3. Further, the MIC was 6.25 µg/mL (≈ 10.1 µM) in the data set with Sporothrix schenckii; 50 µg/mL (≈ 80.6 µM) in the data set on Escherichia coli; 25 µg/mL (≈ 40.3 µM) in the data set on Staphylococcus aureus; 12.5 µg/mL (≈ 20.2 µM) in data set [3]; 25 µg/mL (≈ 40.3 µM) against Aspergillus fumigatus; above 50 µg/mL in the data set on Klebsiella pneumoniae. The MIC was 6.25 µg/mL (≈ 10.1 µM) against Candida albicans, above 50 µg/mL against Pseudomonas aeruginosa, 6.25 µg/mL (≈ 10.1 µM) against Cryptococcus neoformans and 25 µg/mL (≈ 40.3 µM) in the data set with Candida parapsilosis. The IC50 in the data set on Plasmodium falciparum [2] was 78.2 nM; with Plasmodium falciparum [4], above 800 nM.

On to `COC(=O)/C(C)=C/c1ccc(Oc2ccc(N/C(=N/c3ccc(Cl)cc3)NCCNc3ccnc4cc(Cl)ccc34)cc2)cc1`, for which the selectivity ratio in data set [1] worked out at 69.2. Also, the MIC is 6.25 µg/mL (≈ 9.76 µM) in the data set on Sporothrix schenckii; 12.5 µg/mL (≈ 19.5 µM) against Escherichia coli; 6.25 µg/mL (≈ 9.76 µM) against Staphylococcus aureus; 12.5 µg/mL (≈ 19.5 µM) in data set [3]; 25 µg/mL (≈ 39 µM) in the data set with Aspergillus fumigatus; 50 µg/mL (≈ 78.1 µM) in the data set on Klebsiella pneumoniae. Moreover, the MIC in the data set on Candida albicans is 6.25 µg/mL (≈ 9.76 µM); in the data set with Pseudomonas aeruginosa, above 50 µg/mL; in the data set on Cryptococcus neoformans, 6.25 µg/mL (≈ 9.76 µM); in the data set on Candida parapsilosis, 25 µg/mL (≈ 39 µM). The results for the 50% inhibitory concentration (IC50) with Plasmodium falciparum [2] and with Plasmodium falciparum [4] were 43.1 nM and above 800 nM, respectively.

For the compound `Clc1ccc(Cl)c(Oc2ccccc2N/C(=N/c2ccccc2)NCCCCNc2ccnc3cc(Cl)ccc23)c1`, the selectivity ratio in data set [1] is 43.5. Besides, the MIC was 25 µg/mL (≈ 41.3 µM) against Sporothrix schenckii; 25 µg/mL (≈ 41.3 µM) against Escherichia coli; 12.5 µg/mL (≈ 20.7 µM) against Staphylococcus aureus; 50 µg/mL (≈ 82.6 µM) in data set [3]; above 50 µg/mL in the data set on Aspergillus fumigatus; above 50 µg/mL with Klebsiella pneumoniae. Also, the minimum inhibitory concentration (MIC) was 50 µg/mL (≈ 82.6 µM) in the data set with Candida albicans, above 50 µg/mL against Pseudomonas aeruginosa, above 50 µg/mL in the data set with Cryptococcus neoformans and above 50 µg/mL in the data set on Candida parapsilosis. Also, the values for the IC50 in the data set with Plasmodium falciparum [2] and with Plasmodium falciparum [4] were 194 nM and 94 nM, respectively.

For `COC(=O)/C(C)=C/c1ccc(Oc2ccc(N/C(=N/c3ccccc3)NCCNc3ccnc4cc(Cl)ccc34)cc2)cc1`, the selectivity ratio in data set [1] is 158. Further, the MIC with Sporothrix schenckii was 12.5 µg/mL (≈ 20.6 µM); in the data set with Escherichia coli, 12.5 µg/mL (≈ 20.6 µM); against Staphylococcus aureus, 25 µg/mL (≈ 41.2 µM); in data set [3], 6.25 µg/mL (≈ 10.3 µM); in the data set on Aspergillus fumigatus, 25 µg/mL (≈ 41.2 µM); against Klebsiella pneumoniae it was above 50 µg/mL. Moreover, the MIC was 1.52 µg/mL (≈ 2.51 µM) in the data set on Candida albicans, above 50 µg/mL in the data set with Pseudomonas aeruginosa, 12.5 µg/mL (≈ 20.6 µM) against Cryptococcus neoformans and 12.5 µg/mL (≈ 20.6 µM) with Candida parapsilosis. Also, the half-maximal inhibitory concentration (IC50) in the data set with Plasmodium falciparum [2] was determined as 70.3 nM; in the data set with Plasmodium falciparum [4], 65.9 nM.

With `Clc1ccc(Cl)c(Oc2ccccc2N/C(=N/c2ccccc2)NCCNc2ccnc3cc(Cl)ccc23)c1`, the selectivity ratio in [1] was 173. Moreover, the minimum inhibitory concentration (MIC) in the data set on Sporothrix schenckii was 50 µg/mL (≈ 86.7 µM); against Escherichia coli it was 25 µg/mL (≈ 43.3 µM); in the data set on Staphylococcus aureus, 12.5 µg/mL (≈ 21.7 µM); in data set [3], 25 µg/mL (≈ 43.3 µM); against Aspergillus fumigatus, above 50 µg/mL; with Klebsiella pneumoniae, 50 µg/mL (≈ 86.7 µM). The minimal inhibitory concentration (MIC) in the data set on Candida albicans was 50 µg/mL (≈ 86.7 µM); against Pseudomonas aeruginosa, above 50 µg/mL; with Cryptococcus neoformans, above 50 µg/mL; with Candida parapsilosis, 50 µg/mL (≈ 86.7 µM). Moreover, the IC50 with Plasmodium falciparum [2] amounted to 42.5 nM; in the data set on Plasmodium falciparum [4] it was 95.8 nM.

The values are drawn from ChEMBL document CHEMBL3232804, “Synthesis and evaluation of new diaryl ether and quinoline hybrids as potential antiplasmodial and antimicrobial agents” (Bioorg Med Chem Lett, 2014).
